Columns and labels:
[1] = target: T1, Alpha-1A adrenergic receptor (Homo sapiens, UniProt P35348)
T1 sequence (P35348 whole entry): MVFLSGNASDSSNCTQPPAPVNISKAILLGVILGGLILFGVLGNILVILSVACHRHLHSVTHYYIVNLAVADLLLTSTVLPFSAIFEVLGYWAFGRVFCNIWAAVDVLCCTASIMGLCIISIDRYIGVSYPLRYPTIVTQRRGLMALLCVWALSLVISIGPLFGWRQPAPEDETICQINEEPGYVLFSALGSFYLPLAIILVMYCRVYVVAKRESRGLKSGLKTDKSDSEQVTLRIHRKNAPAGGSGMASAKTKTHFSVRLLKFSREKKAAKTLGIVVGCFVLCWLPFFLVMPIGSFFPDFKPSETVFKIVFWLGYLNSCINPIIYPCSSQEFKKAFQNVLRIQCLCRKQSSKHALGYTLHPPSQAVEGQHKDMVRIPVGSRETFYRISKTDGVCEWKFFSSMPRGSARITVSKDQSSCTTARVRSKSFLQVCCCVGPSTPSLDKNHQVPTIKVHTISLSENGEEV

[2] = target: Muscarinic acetylcholine receptor M3 (Homo sapiens, UniProt P20309)
Sequence of Muscarinic acetylcholine receptor M3 (P20309 whole entry): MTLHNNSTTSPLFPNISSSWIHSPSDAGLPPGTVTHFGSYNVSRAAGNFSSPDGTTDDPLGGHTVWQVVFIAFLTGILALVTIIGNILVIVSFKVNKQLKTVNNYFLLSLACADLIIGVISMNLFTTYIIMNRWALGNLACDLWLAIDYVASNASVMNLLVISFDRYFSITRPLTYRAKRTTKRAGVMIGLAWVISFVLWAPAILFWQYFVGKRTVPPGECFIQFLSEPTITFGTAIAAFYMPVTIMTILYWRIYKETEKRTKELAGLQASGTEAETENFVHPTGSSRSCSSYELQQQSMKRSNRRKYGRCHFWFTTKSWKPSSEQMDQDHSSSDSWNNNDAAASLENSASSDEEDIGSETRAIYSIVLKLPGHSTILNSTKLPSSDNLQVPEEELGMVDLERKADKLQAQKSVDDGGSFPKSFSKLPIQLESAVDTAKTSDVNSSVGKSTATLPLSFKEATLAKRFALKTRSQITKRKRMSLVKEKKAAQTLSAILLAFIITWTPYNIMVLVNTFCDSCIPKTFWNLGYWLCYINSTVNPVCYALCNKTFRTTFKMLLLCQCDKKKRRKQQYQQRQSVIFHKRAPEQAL

Histamine H1 receptor = Histamine H1 receptor (Homo sapiens, UniProt P35367)
Sequence of Histamine H1 receptor (P35367 whole entry): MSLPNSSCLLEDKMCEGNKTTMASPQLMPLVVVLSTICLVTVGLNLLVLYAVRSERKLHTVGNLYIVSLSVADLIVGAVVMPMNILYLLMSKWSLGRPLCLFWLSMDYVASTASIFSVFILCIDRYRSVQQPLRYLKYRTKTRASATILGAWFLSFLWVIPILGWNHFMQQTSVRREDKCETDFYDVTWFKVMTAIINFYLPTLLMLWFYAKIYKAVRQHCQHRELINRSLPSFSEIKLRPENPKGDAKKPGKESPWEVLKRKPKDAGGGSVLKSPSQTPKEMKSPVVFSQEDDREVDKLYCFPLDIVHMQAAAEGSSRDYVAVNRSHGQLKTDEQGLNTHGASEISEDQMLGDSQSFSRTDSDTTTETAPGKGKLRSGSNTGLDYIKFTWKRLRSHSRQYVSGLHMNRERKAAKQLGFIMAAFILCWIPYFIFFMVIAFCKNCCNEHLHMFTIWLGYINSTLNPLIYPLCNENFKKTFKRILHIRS

[3] = target: T2, Muscarinic acetylcholine receptor M1 (Homo sapiens, UniProt P11229); format: functional
T2 sequence (P11229 whole entry): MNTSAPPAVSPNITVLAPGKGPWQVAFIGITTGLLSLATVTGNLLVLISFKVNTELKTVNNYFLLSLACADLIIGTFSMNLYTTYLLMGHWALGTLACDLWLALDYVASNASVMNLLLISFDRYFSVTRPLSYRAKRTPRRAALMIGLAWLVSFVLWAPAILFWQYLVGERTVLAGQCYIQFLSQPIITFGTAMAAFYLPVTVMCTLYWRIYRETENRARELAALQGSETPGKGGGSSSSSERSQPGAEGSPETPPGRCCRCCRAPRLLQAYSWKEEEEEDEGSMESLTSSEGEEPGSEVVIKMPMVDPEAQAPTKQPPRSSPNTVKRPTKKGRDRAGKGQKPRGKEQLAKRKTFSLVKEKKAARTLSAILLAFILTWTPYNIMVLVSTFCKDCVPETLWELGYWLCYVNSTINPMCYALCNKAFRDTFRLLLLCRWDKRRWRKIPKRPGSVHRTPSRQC

[4] = target: T3, Endothelin receptor type B (Homo sapiens, UniProt P24530)
T3 sequence (P24530 whole entry): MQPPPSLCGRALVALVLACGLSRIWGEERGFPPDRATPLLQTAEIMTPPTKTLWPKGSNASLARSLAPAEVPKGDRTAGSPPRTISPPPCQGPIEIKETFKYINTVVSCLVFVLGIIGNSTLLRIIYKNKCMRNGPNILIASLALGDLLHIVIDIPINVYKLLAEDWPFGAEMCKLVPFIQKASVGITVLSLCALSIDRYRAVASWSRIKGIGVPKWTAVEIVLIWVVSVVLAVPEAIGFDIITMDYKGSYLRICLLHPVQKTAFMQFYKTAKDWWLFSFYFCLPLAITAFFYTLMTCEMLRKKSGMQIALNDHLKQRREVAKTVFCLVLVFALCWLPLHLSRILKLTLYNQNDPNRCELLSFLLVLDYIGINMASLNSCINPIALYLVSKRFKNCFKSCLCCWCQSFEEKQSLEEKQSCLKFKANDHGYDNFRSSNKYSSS

Glucagon receptor = Glucagon receptor (Homo sapiens, UniProt P47871)
Sequence of Glucagon receptor (P47871 whole entry): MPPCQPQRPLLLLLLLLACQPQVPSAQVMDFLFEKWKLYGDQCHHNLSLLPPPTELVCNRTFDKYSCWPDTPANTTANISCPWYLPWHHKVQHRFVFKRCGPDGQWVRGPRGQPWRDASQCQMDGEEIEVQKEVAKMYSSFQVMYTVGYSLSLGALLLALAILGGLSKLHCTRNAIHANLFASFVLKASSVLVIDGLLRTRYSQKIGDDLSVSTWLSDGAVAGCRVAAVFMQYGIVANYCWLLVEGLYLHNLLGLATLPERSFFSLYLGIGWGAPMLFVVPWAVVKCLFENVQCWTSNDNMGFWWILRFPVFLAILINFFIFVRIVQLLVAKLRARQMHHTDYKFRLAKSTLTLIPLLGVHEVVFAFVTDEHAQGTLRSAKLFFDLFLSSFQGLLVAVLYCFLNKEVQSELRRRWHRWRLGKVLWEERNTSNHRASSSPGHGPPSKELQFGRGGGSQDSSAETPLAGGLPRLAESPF

[5] = target: Voltage-dependent N-type calcium channel subunit alpha-1B (Rattus norvegicus, UniProt Q02294); format: functional
Sequence of Voltage-dependent N-type calcium channel subunit alpha-1B (Q02294 whole entry): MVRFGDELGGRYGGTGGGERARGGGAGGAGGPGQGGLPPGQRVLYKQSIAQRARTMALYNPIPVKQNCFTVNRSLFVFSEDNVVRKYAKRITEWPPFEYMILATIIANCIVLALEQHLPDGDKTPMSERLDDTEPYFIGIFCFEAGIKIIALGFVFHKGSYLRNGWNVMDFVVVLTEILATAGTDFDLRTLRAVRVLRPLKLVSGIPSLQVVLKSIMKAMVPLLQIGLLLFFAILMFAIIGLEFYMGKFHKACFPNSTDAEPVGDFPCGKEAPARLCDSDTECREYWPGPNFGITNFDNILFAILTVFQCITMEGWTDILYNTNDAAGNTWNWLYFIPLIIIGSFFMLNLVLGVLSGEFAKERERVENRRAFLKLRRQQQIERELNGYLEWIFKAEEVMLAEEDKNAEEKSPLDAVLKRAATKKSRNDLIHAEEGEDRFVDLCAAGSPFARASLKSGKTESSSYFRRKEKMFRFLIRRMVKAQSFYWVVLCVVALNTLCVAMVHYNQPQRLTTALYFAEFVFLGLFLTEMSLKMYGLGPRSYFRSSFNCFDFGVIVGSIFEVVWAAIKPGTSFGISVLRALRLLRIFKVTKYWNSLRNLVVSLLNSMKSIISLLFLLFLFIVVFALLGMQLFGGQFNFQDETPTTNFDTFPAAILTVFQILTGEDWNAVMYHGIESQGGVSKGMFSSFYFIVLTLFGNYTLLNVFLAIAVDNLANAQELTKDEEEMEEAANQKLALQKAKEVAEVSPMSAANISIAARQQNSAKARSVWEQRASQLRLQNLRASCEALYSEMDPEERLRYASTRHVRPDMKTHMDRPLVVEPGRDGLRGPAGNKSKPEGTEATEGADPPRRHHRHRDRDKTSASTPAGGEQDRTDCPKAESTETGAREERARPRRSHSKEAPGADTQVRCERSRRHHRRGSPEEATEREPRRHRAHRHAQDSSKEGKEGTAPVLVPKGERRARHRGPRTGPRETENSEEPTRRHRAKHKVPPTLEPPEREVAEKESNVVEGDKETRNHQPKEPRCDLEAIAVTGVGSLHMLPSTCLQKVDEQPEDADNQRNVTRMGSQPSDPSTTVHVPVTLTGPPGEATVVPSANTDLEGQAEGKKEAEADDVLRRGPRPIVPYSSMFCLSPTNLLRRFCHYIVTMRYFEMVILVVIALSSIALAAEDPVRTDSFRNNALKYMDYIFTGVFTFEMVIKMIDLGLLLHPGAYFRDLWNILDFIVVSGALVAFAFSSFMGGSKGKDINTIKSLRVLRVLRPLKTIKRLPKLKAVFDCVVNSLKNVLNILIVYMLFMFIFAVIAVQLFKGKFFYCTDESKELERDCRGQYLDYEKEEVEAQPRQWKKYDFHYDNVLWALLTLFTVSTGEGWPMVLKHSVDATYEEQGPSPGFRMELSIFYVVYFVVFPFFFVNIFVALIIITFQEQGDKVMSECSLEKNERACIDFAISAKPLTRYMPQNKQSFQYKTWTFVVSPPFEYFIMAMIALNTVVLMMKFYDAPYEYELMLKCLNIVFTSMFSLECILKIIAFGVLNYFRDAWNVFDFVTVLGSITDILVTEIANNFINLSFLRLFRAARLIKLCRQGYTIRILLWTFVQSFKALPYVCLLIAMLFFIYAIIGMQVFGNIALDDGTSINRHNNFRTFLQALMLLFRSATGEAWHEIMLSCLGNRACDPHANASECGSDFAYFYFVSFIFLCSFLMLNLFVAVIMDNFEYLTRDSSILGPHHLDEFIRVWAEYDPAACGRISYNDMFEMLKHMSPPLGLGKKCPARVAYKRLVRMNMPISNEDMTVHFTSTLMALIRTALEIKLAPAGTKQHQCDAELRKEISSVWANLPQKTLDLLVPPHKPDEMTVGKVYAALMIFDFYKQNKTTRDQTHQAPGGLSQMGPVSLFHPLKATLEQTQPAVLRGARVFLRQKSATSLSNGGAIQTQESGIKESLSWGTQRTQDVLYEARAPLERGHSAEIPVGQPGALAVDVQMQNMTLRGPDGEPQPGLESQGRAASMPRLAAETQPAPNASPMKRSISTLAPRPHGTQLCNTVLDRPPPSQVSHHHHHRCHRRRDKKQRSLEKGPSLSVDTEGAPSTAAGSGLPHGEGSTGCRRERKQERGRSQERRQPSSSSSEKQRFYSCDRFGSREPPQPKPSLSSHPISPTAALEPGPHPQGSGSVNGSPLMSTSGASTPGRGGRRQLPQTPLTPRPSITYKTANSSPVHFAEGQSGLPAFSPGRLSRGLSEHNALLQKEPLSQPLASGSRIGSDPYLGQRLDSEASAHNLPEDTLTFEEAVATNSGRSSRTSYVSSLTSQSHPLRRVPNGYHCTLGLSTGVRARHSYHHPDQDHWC

[6] = target: T4, Gastric inhibitory polypeptide receptor (Homo sapiens, UniProt P48546)
T4 sequence (P48546 whole entry): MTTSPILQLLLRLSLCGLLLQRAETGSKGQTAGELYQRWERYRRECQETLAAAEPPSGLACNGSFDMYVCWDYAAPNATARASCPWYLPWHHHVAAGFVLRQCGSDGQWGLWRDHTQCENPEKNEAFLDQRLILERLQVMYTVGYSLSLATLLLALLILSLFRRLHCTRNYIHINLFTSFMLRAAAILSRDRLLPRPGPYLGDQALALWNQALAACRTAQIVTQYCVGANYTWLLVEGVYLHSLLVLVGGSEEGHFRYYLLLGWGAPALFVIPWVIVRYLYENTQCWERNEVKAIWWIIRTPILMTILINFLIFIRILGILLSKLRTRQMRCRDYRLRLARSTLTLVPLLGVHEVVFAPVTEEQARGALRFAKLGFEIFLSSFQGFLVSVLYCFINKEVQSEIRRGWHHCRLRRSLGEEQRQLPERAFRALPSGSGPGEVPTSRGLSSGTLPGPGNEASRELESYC

[7] = target: T5, Gamma-aminobutyric acid receptor subunit alpha-1/alpha-2/beta-2/gamma-2 (Homo sapiens, UniProt P14867+P18507+P47869+P47870); format: functional, cell-based
[8] = target: T5, Gamma-aminobutyric acid receptor subunit alpha-1/alpha-2/beta-2/gamma-2; format: protein-complex assay
Further: assay procedure not described here.

For `O=C1CCc2cc(OCCCCc3nnnn3C3CCCCC3)ccc2N1` [CILOSTAZOL], which AC50 [1] is on record?
Its AC50 is > 10 µM.

What does the source list for `COc1ccc(CC2c3cc(OC)c(OC)cc3CC[N+]2(C)CCC(=O)OCCCCCOC(=O)CC[N+]2(C)CCc3cc(OC)c(OC)cc3C2Cc2ccc(OC)c(OC)c2)cc1OC` (configuration not stated)?
AC50 [1]: > 30 µM; AC50 [2]: > 30 µM; AC50 (Histamine H1 receptor): > 30 µM; AC50 [3]: > 30 µM

Which AC50 [4] does the source give for `CCCC(CCC)C(=O)O` [VALPROIC ACID] here?
The AC50 was > 30 µM.

And the AC50 (Glucagon receptor)?
Its AC50 is > 30 µM.

And the AC50 [5]?
The AC50 was > 10 µM.

And the AC50 [6]?
The AC50 was > 30 µM.

Which AC50 [7] does the source give for `CN(C)CCC[C@@]1(c2ccc(F)cc2)OCc2cc(C#N)ccc21` [ESCITALOPRAM] here?
Its AC50 is > 30 µM.

Which AC50 [1] does the source give for `CN1C(C(=O)Nc2ccccn2)=C(O)c2ccccc2S1(=O)=O` [PIROXICAM] here?
The AC50 was > 30 µM.

How did the AC50 [2] turn out when `C=C[C@H]1C[N@@]2CC[C@H]1C[C@@H]2[C@@H](O)c1ccnc2ccc(OC)cc12` [QUINIDINE] was run?
Its AC50 is > 30 µM.

And the AC50 (Histamine H1 receptor)?
Its AC50 is > 10 µM.

And the AC50 [3]?
The AC50 was > 10 µM.

With `Cc1ccccc1C(=O)Nc1ccc(C(=O)N2CCCC(N(C)C)c3ccccc32)cc1` (configuration not stated) [MOZAVAPTAN] as the molecule, how does the AC50 [8] read?
Its AC50 is > 30 µM.

With `C[C@]1(Cn2ccnn2)[C@H](C(=O)O)N2C(=O)C[C@H]2S1(=O)=O` [TAZOBACTAM] as the molecule, how does the AC50 [8] read?
The AC50 was > 30 µM.

For `C[C@]12C=CC(=O)N[C@@H]1CC[C@@H]1[C@@H]2CC[C@]2(C)[C@@H](C(=O)Nc3cc(C(F)(F)F)ccc3C(F)(F)F)CC[C@@H]12` [DUTASTERIDE], which AC50 [1] is on record?
The AC50 was > 10 µM.

What about the AC50 [2] of the same molecule?
Its AC50 is > 30 µM.

And the AC50 (Histamine H1 receptor)?
Its AC50 is > 10 µM.

And the AC50 [3]?
Its AC50 is > 10 µM.

`C[N+](C)(C)C[C@H](O)CC(=O)[O-]` [LEVOCARNITINE] was tested. Which AC50 [8] did it give?
Its AC50 is > 30 µM.

With `CC(C)OC(=O)CCC/C=C\C[C@@H]1[C@@H](/C=C/C(F)(F)COc2ccccc2)[C@H](O)C[C@@H]1O` [TAFLUPROST] as the molecule, how does the AC50 [8] read?
Its AC50 is > 30 µM.

Which AC50 [8] does the source give for `CC1=C(/C=C/C(C)=C/C=C/C(C)=C/C(=O)O)C(C)(C)CCC1` [TRETINOIN] here?
The AC50 was > 3 µM.

For `CC(C)(O)CNc1nc(Nc2ccnc(C(F)(F)F)c2)nc(-c2cccc(C(F)(F)F)n2)n1` [ENASIDENIB], which AC50 [8] is on record?
Its AC50 is > 30 µM.

For `CC(CCc1ccccc1)NCC(O)c1ccc(O)c(C(N)=O)c1` (configuration not stated) [LABETALOL], which AC50 [8] is on record?
Its AC50 is > 30 µM.

Which AC50 [8] does the source give for `Cc1onc(-c2ccccc2)c1C(=O)N[C@@H]1C(=O)N2[C@@H]1SC(C)(C)[C@@H]2C(=O)O` [OXACILLIN] here?
The AC50 was > 30 µM.

How did the AC50 [8] turn out when `O=C(O)COc1ccc(C(=O)c2cccs2)c(Cl)c1Cl` was run?
Its AC50 is > 10 µM.

Which results are given for `CC(C)N(CCC(C(N)=O)(c1ccccc1)c1ccccn1)C(C)C` (configuration not stated) [DISOPYRAMIDE]?
AC50 [1]: > 10 µM; AC50 [2]: > 30 µM; AC50 [4]: > 30 µM; AC50 (Glucagon receptor): > 30 µM; AC50 [5]: > 10 µM; AC50 [6]: > 30 µM; AC50 (Histamine H1 receptor): > 10 µM; AC50 [3]: > 10 µM

`COc1c2ccoc2cc2oc(=O)ccc12` [BERGAPTEN] was tested. Which AC50 [8] did it give?
Its AC50 is > 30 µM.

`CO[C@H]1/C=C/O[C@@]2(C)Oc3c(C)c(O)c4c(O)c(c(/C=N/N5CCN(C)CC5)c(O)c4c3C2=O)NC(=O)/C(C)=C\C=C\[C@H](C)[C@H](O)[C@@H](C)[C@@H](O)[C@@H](C)[C@H](OC(C)=O)[C@@H]1C` [RIFAMPIN] was tested. Which AC50 [1] did it give?
The AC50 was 2.33 µM.

And the AC50 [4]?
Its AC50 is > 30 µM.

And the AC50 (Glucagon receptor)?
Its AC50 is > 30 µM.

And the AC50 [5]?
The AC50 was > 10 µM.

What about the AC50 [6] of the same molecule?
Its AC50 is > 30 µM.

How did the AC50 [1] turn out when `CC(N)C12CC3CC(CC(C3)C1)C2` (configuration not stated) [RIMANTADINE] was run?
The AC50 was > 10 µM.

From ChEMBL document CHEMBL5291721, “A preclinical secondary pharmacology resource illuminates target-adverse drug reaction associations of marketed drugs” (Nat Commun, 2023)
